Patent US20110039763A1, “TARGETED ANTIMICROBIAL MOIETIES” (C3 JIAN, INC., priority 2009, published 2011)
Entries after “also recorded” stand apart in the source; their conditions may differ.

Tests used:
[1] = tested on: microorganisms; test: Peptide activities: targeting/binding, antimicrobial, growth or phenotype altering (Tables 7, 8); format: cell-based; settings: peptides having multiple activities
[2] = tested on: microorganisms; test: Targeting peptide binding to target microorganisms (Tables 3, 10, 12); settings: microorganism(s) the targeting peptide binds; binding in aqueous buffers that varied with peptide solubility, preferably 1x PBS
[3] = tested on: microorganisms; test: Morphology, biofilm and growth disrupting peptides (Table 5); format: cell-based; design: key: A: Peptide aggregates; B: Less hyphal formation; Clumps; Diffuse clumps and small polyps; F: Diffuse growth; H: Thin; I: Growth inhibition; Microcolony formation; Rippled; Small polyps; Thick; W: Halo formation on top, microlonies on bottom
Description: In certain embodiments peptides that induce alterations in phenotype or other biological activities can also be used as antimicrobial effector moieties.

Substance	Activities [1]	Target(s) [2]	Organism, effect: C. jeikeium [3]	Organism, effect: M. luteus [3]	Organism, effect: MRSA [3]	Organism, effect: S. epidermidis [3]
PF-021: peptide having multiple activities (FSLNFSKQKYVTVN; Peptide with targeting and/or antimicrobial activity)	G B	S. epidermidis; also recorded: M. luteus; also recorded: P. mirabilis; also recorded: E. coli; also recorded: C. albicans; also recorded: E. faecalis; also recorded: C. jeikeium	C. jeikeium (R)	M. luteus (A)	MRSA (R)	S. epidermidis (A)
PF-024: peptide having multiple activities (DLRKAK; Peptide with targeting and/or antimicrobial activity)	G B	M. luteus and C. albicans and MRSA and E. faecalis and C. jeikeium			MRSA (M)	S. epidermidis (D)
PF-025: peptide having multiple activities (LLIIFRLWLELKWKNKK; Peptide with targeting and/or antimicrobial activity)	G B	S. epidermidis and M. luteus and P. mirabilis and E. coli and P. aeruginosa and MRSA and E. faecalis and C. jejuni	C. jeikeium (A)	M. luteus (A)	MRSA (R)	S. epidermidis (S)
PF-026: peptide having multiple activities (SIHFIN; Peptide with targeting and/or antimicrobial activity)	G B	S. epidermidis and M. luteus and P. mirabilis and C. albicans and MRSA and E. faecalis and C. jeikeium			MRSA (M)	
PF-027: peptide having multiple activities (HNARKYLEFISQKIDGDKLTKEDSL; Peptide with targeting and/or antimicrobial activity)	G B	M. luteus and MRSA and E. faecalis and C. jejuni			MRSA (M)	S. epidermidis (D)
PF-029: peptide having multiple activities (NSTNE; Peptide with targeting and/or antimicrobial activity)	G B	S. epidermidis; also recorded: M. luteus; also recorded: C. albicans; also recorded: C. jejuni			MRSA (M)	
PF-031: peptide having multiple activities (MPHHSTTSSRIVVPAHQSNMASTPNLSITP; Peptide with targeting and/or antimicrobial activity)	G B	M. luteus; also recorded: C. albicans			MRSA (M)	
PF-034: peptide having multiple activities (EPKKKHFPKMESASSEP; Peptide with targeting and/or antimicrobial activity)	G B	M. luteus				S. epidermidis (A)
PF-035: peptide having multiple activities (SFYESY; Peptide with targeting and/or antimicrobial activity)	G B	S. epidermidis and M. luteus and E. coli and C. albicans and MRSA and C. jeikeium and C. jejuni			MRSA (M)	
PF-036: peptide having multiple activities (ILNRLSRIVSNEVTSLIYSLK; Peptide with targeting and/or antimicrobial activity)	G B	S. epidermidis and M. luteus and P. mirabilis and E. coli and C. albicans and MRSA and S. pneumoniae and C. jejuni	C. jeikeium (A)	M. luteus (A)	MRSA (R)	S. epidermidis (S)
